Patent US7709507B2 (Allergan, Inc., priority 2006, dated 2010)
Like-named read-outs stand apart in the source and are kept apart here.

Legend:
Assay type in all cases: cell-based
alpha2A receptor = molecular target: T1, alpha2A receptor (Homo sapiens, UniProt P08913); assay: Receptor Selection and Amplification Technology (RSAT) assay, Alpha 2A; conditions: for Alpha 2A IA (intrinsic activity): ratio of maximal effect to that of standard full agonist brimonidine (UK14304)
T1 construct: expressed in transfected cells; host or cells: NIH-3T3 cells
T1 sequence (P08913 1-465): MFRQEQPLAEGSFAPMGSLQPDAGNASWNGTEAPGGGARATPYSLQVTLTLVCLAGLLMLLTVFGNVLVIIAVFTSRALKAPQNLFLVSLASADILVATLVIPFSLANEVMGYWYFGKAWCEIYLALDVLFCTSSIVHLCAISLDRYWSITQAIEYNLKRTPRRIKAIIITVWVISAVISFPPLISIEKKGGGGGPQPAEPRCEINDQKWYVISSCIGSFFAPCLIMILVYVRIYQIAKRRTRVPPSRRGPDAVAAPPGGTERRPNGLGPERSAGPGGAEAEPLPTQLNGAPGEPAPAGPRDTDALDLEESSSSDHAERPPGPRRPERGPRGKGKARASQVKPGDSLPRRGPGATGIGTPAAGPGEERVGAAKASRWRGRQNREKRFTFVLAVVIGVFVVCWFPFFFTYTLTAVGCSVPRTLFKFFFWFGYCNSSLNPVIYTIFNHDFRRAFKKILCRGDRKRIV
Protocol: (§1) Receptor Selection and Amplification Technology (RSAT) Assay
(§2) The RSAT assay measures a receptor-mediated loss of contact inhibition that results in selective proliferation of receptor-containing cells in a mixed population of confluent cells. The increase in cell number is assessed with an appropriate transfected marker gene such as β-galactosidase, the activity of which can be easily measured in a 96-well format. Receptors that activate the G protein, Gq, elicit this response. Alpha2 receptors, which normally couple to Gi, activate the RSAT response when coexpressed with a hybrid Gq protein that has a Gi receptor recognition domain, called Gq/i5.
(§3) NIH-3T3 cells are plated at a density of 2×10^6 cells in 15 cm dishes and maintained in Dulbecco's modified Eagle's medium supplemented with 10% calf serum. One day later, cells are cotransfected by calcium phosphate precipitation with mammalian expression plasmids encoding p-SV-β-galactosidase (5-10 μg), receptor (1-2 μg) and G protein (1-2 μg). 40 μg salmon sperm DNA may also be included in the transfection mixture. […] Cells are thawed and 100 μl added to 100 μl aliquots of various concentrations of drugs in triplicate in 96-well dishes. Incubations continue 72-96 hr at 37° C. After washing with phosphate-buffered saline, β-galactosidase enzyme activity is determined by adding 200 μl of the chromogenic substrate (consisting of 3.5 mM o-nitrophenyl-β-D-galactopyranoside and 0.5% nonidet P-40 in phosphate buffered saline), incubating overnight at 30° C. and measuring optical density at 420 nm. The absorbance is a measure of enzyme activity, which depends on cell number and reflects a receptor-mediated cell proliferation. The efficacy or intrinsic activity is calculated as a ratio of the maximal effect of the drug to the maximal effect of a standard full agonist for each receptor subtype. Brimonidine, also called UK14304, the chemical structure of which is shown below, is used as the standard agonist for the alpha2A, alpha2B and alpha2C receptors. The EC50 is the concentration at which the drug effect is half of its maximal effect.
(§4) EC50 values are nanomolar. NA stands for “not active” at concentrations less than 10 micromolar. IA stands for “intrinsic activity.”

alpha2C receptor = molecular target: T2, alpha2C receptor (Homo sapiens, UniProt P18825); assay: Receptor Selection and Amplification Technology (RSAT) assay, Alpha 2C; conditions: for Alpha 2C IA (intrinsic activity): ratio of maximal effect to that of standard full agonist brimonidine (UK14304)
T2 construct: expressed in transfected cells; host or cells: NIH-3T3 cells
T2 sequence (P18825 1-462): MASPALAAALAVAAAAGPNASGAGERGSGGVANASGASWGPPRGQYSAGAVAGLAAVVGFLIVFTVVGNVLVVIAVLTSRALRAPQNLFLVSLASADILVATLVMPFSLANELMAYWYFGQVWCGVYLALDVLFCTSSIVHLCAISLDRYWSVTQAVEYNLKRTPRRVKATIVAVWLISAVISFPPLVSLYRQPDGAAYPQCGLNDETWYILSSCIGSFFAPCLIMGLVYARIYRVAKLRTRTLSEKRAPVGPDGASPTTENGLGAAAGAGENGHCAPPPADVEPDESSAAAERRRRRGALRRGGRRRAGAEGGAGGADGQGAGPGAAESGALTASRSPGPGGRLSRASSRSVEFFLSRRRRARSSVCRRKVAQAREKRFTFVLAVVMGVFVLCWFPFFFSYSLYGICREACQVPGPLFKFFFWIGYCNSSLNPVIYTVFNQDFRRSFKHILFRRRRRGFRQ
Protocol: as §1, §2, §3, §4

alpha2B receptor = molecular target: T3, alpha2B receptor (Homo sapiens, UniProt P18089); assay: Receptor Selection and Amplification Technology (RSAT) assay, Alpha 2B; conditions: for EC50: transfected NIH-3T3 cells with Gq/i5, not active = at concentrations less than 10 micromolar; for Alpha 2B IA (intrinsic activity): ratio of maximal effect to that of standard full agonist brimonidine (UK14304)
T3 construct: expressed in transfected cells; host or cells: NIH-3T3 cells
T3 sequence (P18089 1-450): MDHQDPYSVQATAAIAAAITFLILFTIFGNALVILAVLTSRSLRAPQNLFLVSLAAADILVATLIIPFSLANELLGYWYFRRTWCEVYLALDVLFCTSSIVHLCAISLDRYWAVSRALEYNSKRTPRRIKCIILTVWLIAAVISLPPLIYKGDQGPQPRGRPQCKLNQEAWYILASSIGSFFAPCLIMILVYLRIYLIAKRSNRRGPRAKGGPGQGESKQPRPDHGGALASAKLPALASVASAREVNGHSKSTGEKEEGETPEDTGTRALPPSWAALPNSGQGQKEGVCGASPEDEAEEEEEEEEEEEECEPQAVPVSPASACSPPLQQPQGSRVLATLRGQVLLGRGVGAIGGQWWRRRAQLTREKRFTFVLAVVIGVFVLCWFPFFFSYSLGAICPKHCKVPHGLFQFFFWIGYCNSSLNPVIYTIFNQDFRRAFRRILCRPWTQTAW
Protocol: as §1, §2
NIH-3T3 cells are plated at a density of 2×10^6 cells in 15 cm dishes and maintained in Dulbecco's modified Eagle's medium supplemented with 10% calf serum. One day later, cells are cotransfected by calcium phosphate precipitation with mammalian expression plasmids encoding p-SV-β-galactosidase (5-10 μg), receptor (1-2 μg) and G protein (1-2 μg). 40 μg salmon sperm DNA may also be included in the transfection mixture. Fresh media is added on the following day and 1-2 days later, cells are harvested and frozen in 50 assay aliquots. Cells are thawed and 100 μl added to 100 μl aliquots of various concentrations of drugs in triplicate in 96-well dishes. Incubations continue 72-96 hr at 37° C. After washing with phosphate-buffered saline, β-galactosidase enzyme activity is determined by adding 200 μl of the chromogenic substrate (consisting of 3.5 mM o-nitrophenyl-β-D-galactopyranoside and 0.5% nonidet P-40 in phosphate buffered saline), incubating overnight at 30° C. and measuring optical density at 420 nm. The absorbance is a measure of enzyme activity, which depends on cell number and reflects a receptor-mediated cell proliferation. The efficacy or intrinsic activity is calculated as a ratio of the maximal effect of the drug to the maximal effect of a standard full agonist for each receptor subtype. Brimonidine, also called UK14304, the chemical structure of which is shown below, is used as the standard agonist for the alpha2A, alpha2B and alpha2C receptors. The EC50 is the concentration at which the drug effect is half of its maximal effect.
The results of the RSAT assay with several exemplary compounds of the invention are disclosed in Table 1 above together with the chemical formulas of these exemplary compounds. EC50 values are nanomolar. NA stands for “not active” at concentrations less than 10 micromolar. IA stands for “intrinsic activity.”

[1] = RSAT, transfected NIH-3T3 cells with Gq/i5, not active = at concentrations less than 10 micromolar
[2] = RSAT, transfected NIH-3T3 cells with Gq/i5, not active = at concentrations less than 10 micromolar, read-out: Alpha 2C EC50

Compound | Alpha 2A EC50 (alpha2A receptor; [1]) | Alpha 2C EC50 (alpha2C receptor; [1]) | EC50 (alpha2B receptor; RSAT, read-out: Alpha 2B EC50) [nM] | Alpha 2B IA (intrinsic activity) (alpha2B receptor) | EC50 (alpha2A receptor; RSAT, transfected NIH-3T3 cells with Gq/i5, not active = at concentrations less than 10 micromolar, read-out: Alpha 2A EC50) [nM] | Alpha 2A IA (intrinsic activity) (alpha2A receptor) | EC50 (alpha2C receptor; [2]) [nM] | Alpha 2C IA (intrinsic activity) (alpha2C receptor) | EC50 (alpha2C receptor) [nM] | EC50 (alpha2B receptor; Alpha 2B EC50, RSAT) [nM] | EC50 (alpha2A receptor) [nM]
O=C(NCCF)NC(Cc1ccccc1Cl)c1ccccc1 (stereo not drawn) | not active | not active | 606 | 0.63 | – | – | – | – | – | – | –
O=C(NCCF)NC(Cc1ccccc1)c1ccc(Cl)cc1 (stereo not drawn) | not active | not active | 177 | 0.55 | – | – | – | – | – | – | –
O=C(NCCF)NC(Cc1ccccc1)c1ccccc1F (stereo not drawn) | – | – | 103 | 0.79 | 2140 | 0.35 | 101 | 0.31 | – | – | –
O=C(NCCF)NC(Cc1ccccc1)c1ccc(F)cc1 (stereo not drawn) | not active | not active | 299 | 0.71 | – | – | – | – | – | – | –
Cc1ccccc1CC(NC(=O)NCCF)c1cccc(Cl)c1 (stereo not drawn) | not active | – | 26.8 | 0.94 | – | – | 787 | 0.38 | – | – | –
Cc1cccc(C(Cc2ccccc2F)NC(=O)NCCF)c1 (stereo not drawn) | not active | not active | 13.8 | 1.02 | – | – | – | – | – | – | –
Cc1cccc(C(Cc2ccc(F)cc2)NC(=O)NCCF)c1 (stereo not drawn) | not active | not active | 42.9 | 0.88 | – | – | – | – | – | – | –
O=C(NCCF)NC(Cc1ccccc1)c1ccc(O)cc1 (stereo not drawn) | not active | not active | 146 | 0.82 | – | – | – | – | – | – | –
O=C(NCCF)NC(Cc1ccccc1)c1ccccc1 (stereo not drawn) [1-(1,2-diphenyl-ethyl)-3-(2-fluoro-ethyl)-urea] | not active | – | – | 0.96 | – | – | – | 0.32 | 345 | 33.8 | –
O=C(NCCF)NC(Cc1ccccc1)C1CCCCC1 (stereo not drawn) [1-(1-cyclohexyl-2-phenylethyl)-3-(2-fluoroethyl)urea] | not active | not active | 640 | 0.33 | – | – | – | – | – | – | –
O=C(NCCF)NC(Cc1ccccc1)C1CCCC1 (stereo not drawn) [1-(1-cyclopentyl-2-phenylethyl)-3-(2-fluoroethyl)urea] | not active | not active | 378 | 0.6 | – | – | – | – | – | – | –
Cc1cccc(C(Cc2ccsc2)NC(=O)NCCF)c1 (stereo not drawn) [1-(2-Fluoro-ethyl)-3-(2-thiophen-3-yl-1-m-tolyl-ethyl)-urea] | not active | not active | 63.4 | 1.0 | – | – | – | – | – | – | –
O=C(NCCF)NC(Cc1ccccc1)c1ccco1 (stereo not drawn) [1-(2-fluoro-ethyl)-3-(1-furan-2-yl-2-phenyl-ethyl)-urea] | not active | not active | 513 | 0.77 | – | – | – | – | – | – | –
Cc1cccc(C(Cc2ccccn2)NC(=O)NCCF)c1 (stereo not drawn) [1-(2-fluoro-ethyl)-3-(2-pyridin-2-yl-1-m-tolyl-ethyl)-urea] | not active | not active | 135 | 0.87 | – | – | – | – | – | – | –
Cc1cccc(C(Cc2cccnc2)NC(=O)NCCF)c1 (stereo not drawn) [1-(2-fluoro-ethyl)-3-(2-pyridin-3-yl-1-m-tolyl-ethyl)-urea] | not active | not active | 53.2 | 0.95 | – | – | – | – | – | – | –
Cc1cccc(C(Cc2ccncc2)NC(=O)NCCF)c1 (stereo not drawn) [1-(2-fluoro-ethyl)-3-(2-pyridin-4-yl-1-m-tolyl-ethyl)-urea] | – | not active | – | 1.1 | – | 0.44 | – | – | – | 37.7 | 341
